Assay results published in patent publication US8541468B2, “Ophthalmic composition for treating tear dysfunction” (Ophtecs Corporation, priority 2003, dated 2013).

Assays:
Format in all cases: in vivo
rat dry eye models [1] = assay: Observation of dry spot areas in the tear film of rat dry eye models; conditions: four times a day for 5 days, dry environment
Source text: Air was blown against rats in a low humidity environment as described below to prepare rat dry eye models. An effect of sodium D-3-hydroxybutyrate (hereinafter abbreviated as “HBA.Na”) which is an active ingredient in the present invention, i.e., its effect of improving the stability of tear film, was examined by use of the prepared rat dry eye models. That is, observation of dry spot areas in the tear film of the rats and measurement of BUT of the tear film were made. […]
After passage of two hours from the last application of the eye drops on the fifth day, a xylazine hydrochloride/ketamine hydrochloride mixed solution was injected (2 ml/kg) into the rats to anesthetize them. […] Dry spot areas had been observed for 5 minutes since the eye-opening by use of a dry eye observation device “DR-1” (product of KOWA CO., LTD.), and the observed images were recorded on a videotape. The observed images were analyzed by use of image analysis software “Scion Image (version 4.02β)” (product of Scion Corporation) to determine a dry spot area per unit area [dry spot area (pixel)/area of observed area on the cornea (pixel)]. From the area, a dry spot area per unit area of the cornea [dry spot area (mm^2)/area of observed area on the cornea (mm^2)] was calculated by use of a conversion formula (1 pixel=0.0000195 mm^2) and evaluated. […]

rat dry eye models [2] = assay: Measurement of tear film breakup time (BUT) in rat dry eye models; conditions: eye drops of any concentration (40, 80 and 120 mmol/L HBA.Na), four times a day for 5 days, dry environment
Source text: Air was blown against rats in a low humidity environment as described below to prepare rat dry eye models. An effect of sodium D-3-hydroxybutyrate (hereinafter abbreviated as “HBA.Na”) which is an active ingredient in the present invention, i.e., its effect of improving the stability of tear film, was examined by use of the prepared rat dry eye models. That is, observation of dry spot areas in the tear film of the rats and measurement of BUT of the tear film were made.
As the animals to be examined, there were used female SD rats of 8 weeks old that had been conditioned in an animal room where they were kept under light for 12 hours and in the dark for 12 hours at a room temperature of 23±2° C. and a relative humidity of 60±10%. The rats were kept in the animal room for 4 days. […]
After passage of two hours from the last application of the eye drops on the fifth day, a xylazine hydrochloride/ketamine hydrochloride mixed solution was injected (2 ml/kg) into the rats to anesthetize them. After 1% fluorescein was added to the eyes of the rats and the rats were forced to blink a few times, BUT was measured. The above procedure was conducted for HBA.Na concentrations of 40, 80 and 120 mmol/L, and each of the HBA.Na concentrations was evaluated based on 8 eyes of 8 rats.

[3] = test system: corneal epithelial cells of rat dry eye models; assay: SEM observation of corneal epithelial cells of rat dry eye models (proportion of dark cells, microvilli); conditions: 80 mmol/l HBA.Na applied for 5 days, dry environment
Protocol: By use of the rat dry eye models described in Example 1, the corneal epithelial cells of the rats after HBA.Na and PBS were applied were observed by a scanning electron microscope (hereinafter abbreviated as “SEM”).
Samples were prepared in the following manner. • (1) In accordance with the methods described (1), (2) and (4) of Example 1, after 80 mmol/l of HBA.Na and a PBS solution were applied for 5 days, the corneas of the rats were removed immediately and washed with a phosphate buffer (hereinafter abbreviated as “PB”). […]
The photographs taken by the above method were subjected to image analysis to calculate the proportion of the number of dark cells. In the analysis, 6 spots of a certain area were selected randomly from the photograph, the numbers of cells and dark cells within the areas were counted, and the ratio of the number of dark cells to the number of all cells was calculated. […]

C[C@@H](O)CC(=O)[O-].[Na+] [HBA.Na, sodium D-3-hydroxybutyrate]
dry spot area per unit area of the cornea, compared with PBS (rat dry eye models [1]; eye drop containing 80 mmol/l HBA.Na, p<0.05 vs PBS): significantly smaller dry spot area
dry spot area per unit area of the cornea, compared with PBS (rat dry eye models [1]; eye drop containing 120 mmol/l HBA.Na, tendency only): the dry spot area also became smaller
tear film breakup time (BUT), compared with PBS (rat dry eye models [2]): BUT extended more significantly
state of the microvilli/microvillus of the corneal epithelial cells ([3]; SEM): retained in a normal state and/or restored to the normal state
proportion of dark cells in corneal epithelial cells, compared with PBS ([3]; SEM image analysis): significantly lower proportion of dark cells
